Reference: patent US20090061000A1, “PHARMACEUTICAL FORMULATION USE 030” (AstraZeneca AB, priority 2007, published 2009)

What was measured:
[1] = target: thrombin (Homo sapiens, UniProt P00734); conditions: free amidine metabolite of Compound A; cited from earlier work
[2] = target: T1, CYP2C9 (Homo sapiens, UniProt P11712); experiment: Cocktail drug-drug interaction study: tolbutamide pharmacokinetics as probe of CYP2C9 activity; format: in vivo; conditions: co-administration of 500 mg Compound A with tolbutamide 500 mg
T1 construct: from tissue
Source text: 24 healthy male subjects aged between 20 and 43 years received the following dosing regimens in random order: • 1.
The three treatments were separated by a wash-out period of 7 to 21 days.

T1 sequence (P11712 whole entry): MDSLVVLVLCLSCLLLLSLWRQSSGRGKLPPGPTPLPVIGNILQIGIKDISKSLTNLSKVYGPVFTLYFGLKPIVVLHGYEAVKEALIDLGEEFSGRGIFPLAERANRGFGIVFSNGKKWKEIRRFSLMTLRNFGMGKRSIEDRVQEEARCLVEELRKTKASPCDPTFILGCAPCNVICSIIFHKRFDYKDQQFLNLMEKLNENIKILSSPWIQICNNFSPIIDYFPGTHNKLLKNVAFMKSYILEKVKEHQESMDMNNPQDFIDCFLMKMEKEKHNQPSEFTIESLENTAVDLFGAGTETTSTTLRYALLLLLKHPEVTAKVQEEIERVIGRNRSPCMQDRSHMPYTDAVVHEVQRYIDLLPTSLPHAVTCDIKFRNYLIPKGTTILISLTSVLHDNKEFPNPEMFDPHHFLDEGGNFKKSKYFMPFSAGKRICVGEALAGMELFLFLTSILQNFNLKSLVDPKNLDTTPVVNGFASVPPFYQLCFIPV

| effect on CYP2C9 activity (influence on the pharmacokinetics of tolbutamide) [2] | SMILES | inhibition of thrombin [1] |
| --- | --- | --- |
| – | N=C(N)c1ccc(CNC(=O)[C@@H]2CCN2C(=O)[C@H](O)c2cc(Cl)cc(OC(F)F)c2)cc1 [Compound C, Ph(3-Cl)(5-OCHF2)—(R)CH(OH)C(O)—(S)Aze-Pab] | has been found to inhibit thrombin |
| no effect | CO/N=C(\N)c1ccc(CNC(=O)[C@@H]2CCN2C(=O)[C@H](O)c2cc(Cl)cc(OC(F)F)c2)cc1 [Compound A, Ph(3-Cl)(5-OCHF2)—(R)CH(OH)C(O)—(S)Aze-Pab(OMe)] | – |
